Laboratory results: PMC7033309, “π-Helix controls activity of oxygen-sensing diguanylate cyclases” (Bioscience Reports, 2020)

Key:
PccGCS [1] = target: T1, PccGCS (Pectobacterium carotovorum, UniProt C6D9C2); experiment: EnzChek pyrophosphate diguanylate cyclase turnover assay with purified protein, […] GTP; type: biochemical
T1 construct: gene PC1_2619; full-length PccGCS WT (His-tagged)

PccGCS [2] = target: T2, PccGCS (Pectobacterium carotovorum, UniProt C6D9C2, H237A/K238A); experiment: as above; type: biochemical
T2 construct: gene PC1_2619; full-length PccGCS H237A/K238A (His-tagged)
T2 sequence (C6D9C2 1-471 H237A/K238A): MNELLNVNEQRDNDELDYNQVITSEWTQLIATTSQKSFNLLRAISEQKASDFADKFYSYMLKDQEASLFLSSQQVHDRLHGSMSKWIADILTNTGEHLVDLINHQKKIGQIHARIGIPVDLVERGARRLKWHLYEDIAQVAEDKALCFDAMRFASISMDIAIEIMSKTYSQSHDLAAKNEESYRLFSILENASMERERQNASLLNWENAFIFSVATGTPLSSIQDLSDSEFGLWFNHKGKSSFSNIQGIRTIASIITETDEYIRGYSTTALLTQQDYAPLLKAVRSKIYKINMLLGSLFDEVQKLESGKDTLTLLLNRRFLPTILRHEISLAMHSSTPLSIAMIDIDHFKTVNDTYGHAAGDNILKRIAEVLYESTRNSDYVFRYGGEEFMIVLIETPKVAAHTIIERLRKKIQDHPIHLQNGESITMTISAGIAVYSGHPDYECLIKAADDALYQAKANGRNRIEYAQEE

In the case of Nc1nc2c(ncn2[C@@H]2O[C@H](COP(=O)(O)OP(=O)(O)OP(=O)(O)O)[C@@H](O)[C@H]2O)c(=O)[nH]1 [GTP], the “EnzChek pyrophosphate diguanylate cyclase turnover assay with purified protein,” value (PccGCS [1]) is reported as 0.759 min⁻¹ and the “EnzChek pyrophosphate diguanylate cyclase turnover assay with purified protein,” value (PccGCS [2]) is reported as 0.0227 min⁻¹.
